Reference: patent publication US9289417B2, “Compounds and methods for the modulation of sulfilimine bond formation” (VANDERBILT UNIVERSITY, priority 2009, dated 2016)
“Also recorded” adds a separate entry of the source.

How the values were obtained:
[1] = system: type IV collagen NC1 domain sulfilimine crosslink formation; assay: Type IV collagen NC1 domain sulfilimine crosslink (dimer) formation in matrix of cultured PF HR9 cells, western blot; format: cell-based, mouse; settings: for inhibition of NC1 dimer (D) formation: PF HR9 mouse endodermal cell matrix, anti-α2 chain western blot; for effect on NC1 domain sulfilimine crosslink (dimer) formation, in words: increasing concentrations, PF HR9 cell culture matrix, western blot
Procedure: FIG. 9. Methimazole and Phloroglucinol inhibit type IV collagen NC1 domain sulfilimine crosslink formation. NC1 domains were prepared from collagenase digests of extracellular matrix derived from cultured PF HR9 mouse endodermal cells and detected by western blotting with an anti-α2 chain monoclonal antibody.
Standard drug discovery strategies may identify other agents that specifically target the sulfilimine cross-link system with minimal inhibition of other peroxidase systems. In addition, a monoclonal antibody can be generated to inhibit enzyme activity. These agents represent anti-angiogenic oncologic agents that can be translated to clinical medicine with broad application.

human peroxidasin (PXDN) = target: T1, human peroxidasin (PXDN) (Homo sapiens, UniProt Q92626); assay: NC1 domain dimerization by HEK293 cells stably transfected with human peroxidasin plated on monomeric PFHR9 matrix; format: cell-based; settings: concentration not given
T1 construct: expressed in transfected cells; host or cells: HEK293 (stably transfected)
T1 sequence (Q92626 27-1479): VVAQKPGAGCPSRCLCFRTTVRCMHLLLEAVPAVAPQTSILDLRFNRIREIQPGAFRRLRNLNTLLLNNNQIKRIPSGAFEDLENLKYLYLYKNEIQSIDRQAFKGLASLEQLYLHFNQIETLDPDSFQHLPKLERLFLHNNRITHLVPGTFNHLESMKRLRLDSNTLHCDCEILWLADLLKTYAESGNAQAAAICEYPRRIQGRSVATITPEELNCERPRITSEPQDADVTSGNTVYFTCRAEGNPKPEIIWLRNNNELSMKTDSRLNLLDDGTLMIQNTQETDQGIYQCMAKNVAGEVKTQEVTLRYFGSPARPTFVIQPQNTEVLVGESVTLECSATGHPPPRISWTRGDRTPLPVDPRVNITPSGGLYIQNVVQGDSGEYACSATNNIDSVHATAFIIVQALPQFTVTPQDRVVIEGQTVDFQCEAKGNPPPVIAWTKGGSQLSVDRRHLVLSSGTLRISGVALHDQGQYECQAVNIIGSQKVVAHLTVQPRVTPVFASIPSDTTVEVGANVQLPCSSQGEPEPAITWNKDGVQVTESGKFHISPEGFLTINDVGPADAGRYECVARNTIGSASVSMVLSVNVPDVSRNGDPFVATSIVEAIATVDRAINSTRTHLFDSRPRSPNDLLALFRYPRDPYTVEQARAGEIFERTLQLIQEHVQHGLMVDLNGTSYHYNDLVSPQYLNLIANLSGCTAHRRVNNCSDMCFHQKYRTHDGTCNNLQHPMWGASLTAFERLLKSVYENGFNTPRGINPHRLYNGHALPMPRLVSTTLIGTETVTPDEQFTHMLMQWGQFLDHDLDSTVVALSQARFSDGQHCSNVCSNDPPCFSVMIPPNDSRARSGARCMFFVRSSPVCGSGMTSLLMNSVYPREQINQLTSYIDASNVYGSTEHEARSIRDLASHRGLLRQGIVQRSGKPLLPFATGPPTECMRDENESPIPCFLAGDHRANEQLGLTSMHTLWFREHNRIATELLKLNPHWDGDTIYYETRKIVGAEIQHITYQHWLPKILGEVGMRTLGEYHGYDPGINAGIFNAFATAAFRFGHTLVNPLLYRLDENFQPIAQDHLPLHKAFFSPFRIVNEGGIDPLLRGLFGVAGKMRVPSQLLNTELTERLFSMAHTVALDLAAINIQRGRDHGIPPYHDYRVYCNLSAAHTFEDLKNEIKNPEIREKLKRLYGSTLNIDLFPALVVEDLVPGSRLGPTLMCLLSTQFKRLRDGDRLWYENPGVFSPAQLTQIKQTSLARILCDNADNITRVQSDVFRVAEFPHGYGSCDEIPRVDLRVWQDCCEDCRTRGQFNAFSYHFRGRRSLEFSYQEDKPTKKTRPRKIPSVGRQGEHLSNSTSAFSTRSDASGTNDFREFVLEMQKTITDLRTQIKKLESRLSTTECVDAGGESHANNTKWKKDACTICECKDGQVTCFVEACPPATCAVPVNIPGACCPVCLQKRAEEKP
From the text: FIG. 11. PXDN mediates NC1 domain dimerization. HEK293 stably transfected with human peroxidasin (PXDN) plated on top of monomeric PFHR9 matrix leads to NC1 domain dimerization (middle lanes). […] Placental basement membrane (PBM) NC1 domain is shown for comparison.
Based on these findings, they pursued peroxidasin, a known matrix peroxidase, as a possible candidate for collagen IV dimer and presumably sulfilimine bond formation. […] Peroxidasin was also identified as an endogenous component of the extracellular matrix produced by the HR-9 cells with the use of mass spectrometry.

| SMILES | inhibition of NC1 dimer (D) formation ([1]; Phloroglucinol at 5 uM) | inhibition of NC1 dimer (D) formation ([1]; Phloroglucinol at 50 uM) | effect on NC1 domain sulfilimine crosslink (dimer) formation, in words [1] | effect on NC1 domain sulfilimine crosslink (dimer) formation, in words ([1]; listed as phloroglucinol) | NC1 domain dimerization by PXDN transfected HEK293 cells in the presence of inhibitor (human peroxidasin (PXDN)) | effect on NC1 domain sulfilimine crosslink (dimer) formation, in words ([1]; listed as methimazole) |
| --- | --- | --- | --- | --- | --- | --- |
| Oc1cc(O)cc(O)c1 [Phloroglucinol, phloroglucinol] | near complete inhibition | complete inhibition | inhibits dimer (D) formation more potently | inhibit cross-link formation | No dimer formation was observed; also recorded: fail to lead to dimerization | – |
| Cn1cc[nH]c1=S [Methimazole, methimazole] | – | – | decreases crosslinked NC1 dimer (D) while increasing non-crosslinked monomer (M) | – | – | inhibit cross-link formation |
